# Test results from patent US9763956B2, “Diagnostic and treatment methods in subjects having or at risk of developing resistance to cancer therapy” (The Broad Institute, Inc., priority 2012, dated 2017).
# Entries after “also recorded” stand apart in the source; their conditions may differ.
# Experiments:
# [1] = test system: Notch inhibitor sensitive T-ALL cell lines; assay: Long-term culture of Notch inhibitor sensitive T-ALL cell lines with GSI (resistance modeling); format: cell-based, human
# Protocol: Notch inhibitor sensitive T-ALL cell lines were cultured in the presence of 1 μM GSI in vitro. Cells were plated at 0.25×10^6/ml in 20 mL and split every 3-4 days. Cell viability, cell size and cell cycle were measured every 3-4 days. […] GSI-treated cells stopped proliferating between day 14 to 30 of culture, but eventually started proliferating again despite the presence of GSI with subsequent growth rates being equal or similar to untreated cells.
# [2] = test system: Notch inhibitor resistant (persister) T-ALL cell lines; assay: Cell viability / proliferation (Celltiterglo luminescence); format: cell-based, human; details: compared to naïve cells, viability read on day 6
# Protocol: (§1) Notch inhibitor sensitive and resistant T-ALL cell lines were plated in 96 well plates and treated with vehicle, 1 uM GSI and/or increasing concentrations of the bet inhibitor JQ1. Cell viability was determined by measuring luminescence after Celltiterglo® (Promega) addition on day 6. Apoptosis was measured using Caspaseglo® (Promega) on day 4.
# [3] = test system: MYC in persister cells; assay: MYC expression, Western blot (FIG. 17A); format: cell-based, human
# Protocol: (§2) FIG. 17A is two photographs of western blots show MYC expression in naïve and persister cells after 3 day treatment with 2 μM AKT inhibitor, MK-2206, or 10 nM mTOR inhibitor, Rapamycin. FIG. 17B depicts graphs showing BRD4 binding at the MYC and BCL2 promoters.
# [4] = test system: Bcl-2 in naïve leukemia cells; assay: Bcl-2 protein level, Western blot (FIG. 9B); format: cell-based, human; details: naïve population
# [5] = test system: Notch inhibitor resistant T-ALL cell lines; assay: Apoptosis (Caspaseglo); format: cell-based, human; details: resistant leukemia cells compared to naïve; day 4
# Protocol: as §1
# [6] = Gastrointestinal toxicity, Periodic acid-Schiff (PAS) stain in Balb/c mice; format: in vivo, mouse; details: JQ1 given in addition to DBZ
# Protocol: Balb/c mice were treated with DBZ+JQ1, DBZ, or vehicle alone. Hyperproliferation of globlet cells was measured by Periodic acid-Schiff (PAS) stain.
# [7] = test system: MYC in naïve T-ALL cells; assay: MYC expression, Western blot (FIG. 12B, 17A); format: cell-based, human
# Protocol: as §2
# [8] = test system: Bcl-2 in GSI resistant leukemia cells; assay: Bcl-2 protein level, Western blot (FIG. 9B); format: cell-based, human; details: GSI resistant (persister) cells
# [9] = test system: Notch inhibitor sensitive (naïve) T-ALL cell lines; assay: Cell viability / proliferation (Celltiterglo luminescence); format: cell-based, human; details: JQ1 concentrations that arrest persisters
# Protocol: as §1
smiles,measurement,setting,value
C[C@H](NC(=O)Cc1cc(F)cc(F)c1)C(=O)N[C@H]1N=C(c2ccccc2)c2ccccc2N(C)C1=O [compound E],GSI concentration tolerated by persister cells relative to the IC50,[1],more than 50 fold
CN(C)CC[C@H](CSc1ccccc1)Nc1ccc(S(=O)(=O)NC(=O)c2ccc(N3CCN(Cc4ccccc4-c4ccc(Cl)cc4)CC3)cc2)cc1[N+](=O)[O-] [ABT-737],proliferation / survival of resistant (persister) leukemia cells,[2],effectively killed persister cells
Cc1sc2c(c1C)C(c1ccc(Cl)cc1)=N[C@@H](CC(=O)OC(C)(C)C)c1nnc(C)n1-2 [JQ1],MYC expression,[3],significantly reduced MYC expression
same,Bcl-2 expression,[4],little effect
same,apoptosis,[5],increase in apoptosis
same,intestinal villi architecture (PAS stain),[6],largely ameliorated villi architecture
same,MYC expression,[7],did not alter MYC
same,Bcl-2 protein level / expression,[8],inhibited; also recorded: decreased level of Bcl-2 protein; also recorded: significantly reduced Bcl-2 expression
same,proliferation / survival of resistant (persister) leukemia cells,[2],decrease in proliferation; also recorded: proliferation arrest
same,proliferation of naïve T-ALL cells,[9],well tolerated
"Cc1sc2c(c1C)C(c1ccc(Cl)cc1)=N[C@@H](CC(=O)OC(C)(C)C)c1nnc(C)n1-2 (single isomer, unassigned) [JQ1 enantiomer]",proliferation / survival of resistant (persister) leukemia cells,[2],no effect
